Here are results for two compounds from ChEMBL document CHEMBL5113393, “Discovery of 2-((2-methylbenzyl)thio)-6-oxo-4-(3,4,5-trimethoxyphenyl)-1,6-dihydropyrimidine-5-carbonitrile as a novel and effective bromodomain and extra-terminal (BET) inhibitor for the treatment of sepsis” (Eur J Med Chem, 2022).

The structures appear in SMILES notation. Activity calls are given as the source filed them. No cut-off for these calls is given here.

The test system of test [1] is RAW264.7. Briefly: Antiinflammatory activity in mouse RAW264.7 cells assessed as inhibition of LPS-induced NO production at 10 uM preincubated for 2 hrs followed by LPS stimulation and measured after 22 hrs by Griess reagent-based assay relative to control. In kind it is functional. The following applies: time 24 hrs.
The subject of test [2] is RAW264.7. Kind of test: Antiinflammatory activity in mouse RAW264.7 cells assessed as inhibition of LPS-induced NO production at 5 uM preincubated for 2 hrs followed by LPS stimulation and measured after 22 hrs by Griess reagent-based assay relative to control. In kind it is functional. The following applies: time 24 hrs.
The subject of test [3] is Mus musculus. Briefly: Protection against LPS-induced sepsis in C57BL/6 mouse model assessed as reduction in hypothermia at 10 mg/kg, ip qd administered for 3 days followed by LPS stimulation for 12 hrs and measured every 1 hr by digital thermometer. It is filed as functional, organism-based. The following applies: time 84.0 hrs.
Test [4] has as its system Mus musculus. Briefly: Antiinflammatory activity against LPS-induced sepsis in C57BL/6 mouse model assessed as reduction in IL-6 level at 15 mg/kg, ip qd administered for 3 days followed by LPS stimulation and measured after 12 hrs by ELISA. It is filed as functional, organism-based. The following applies: time 84.0 hrs.
The subject of test [5] is RAW264.7. Kind of test: Antiinflammatory activity in mouse RAW264.7 cells assessed as reduction in LPS-induced IL-6 level at 5 to 10 uM preincubated for 2 hrs followed by LPS stimulation and measured after 22 hrs by ELISA. The following applies: dose 5-10 µM, time 24.0 hrs. It is filed as functional, cell-based.
Test [6] concerns RAW264.7. Kind of test: Antiinflammatory activity in mouse RAW264.7 cells assessed as reduction in LPS-induced IL-6 mRNA expression preincubated for 2 hrs followed by LPS stimulation and measured after 22 hrs by RT-qPCR analysis. In kind it is functional, cell-based. The following applies: dose 5-25 µM, time 24.0 hrs, DDE = dose-dependent effect.
The subject of test [7] is Mus musculus. Briefly: Antiinflammatory activity against LPS-induced sepsis in C57BL/6 mouse model assessed as reduction in TNF-alpha level at 15 mg/kg, ip qd administered for 3 days followed by LPS stimulation and measured after 12 hrs by ELISA. It is filed as functional, organism-based. The following applies: time 84.0 hrs.
In test [8] the test system is Mus musculus. Briefly: Protection against LPS-induced sepsis in C57BL/6 mouse model assessed as improvement in mobility at 30 mg/kg, ip qd administered for 3 days followed by LPS stimulation. The following applies: time 3.0 day. It is filed as functional, organism-based.
The test system of test [9] is Mus musculus. Briefly: Protection against LPS-induced sepsis in C57BL/6 mouse model assessed as increase in survival rate at 30 mg/kg, ip qd administered for 3 days followed by LPS stimulation and measured every 2 hrs for 120 hrs (reference value: 10%). It is filed as functional.
The test system of test [10] is RAW264.7. Kind of test: Antiinflammatory activity in mouse RAW264.7 cells assessed as reduction in LPS-induced IL-1beta mRNA expression preincubated for 2 hrs followed by LPS stimulation and measured after 22 hrs by RT-qPCR analysis. In kind it is functional, cell-based. The following applies: dose 5-25 µM, time 24.0 hrs, DDE = dose-dependent effect.
The test system of test [11] is Mus musculus. Briefly: Protection against LPS-induced sepsis in C57BL/6 mouse model assessed as improvement in orbital movement at 30 mg/kg, ip qd administered for 3 days followed by LPS stimulation. In kind it is functional, organism-based. The following applies: time 3.0 day.
In test [12] the test system is RAW264.7. Briefly: Antiinflammatory activity in mouse RAW264.7 cells assessed as reduction in LPS-induced TNF-alpha level at 5 to 10 uM preincubated for 2 hrs followed by LPS stimulation and measured after 22 hrs by ELISA. In kind it is functional, cell-based. The following applies: dose 5-10 µM, time 24.0 hrs.
Test [13] has as its system Mus musculus. Briefly: Protection against LPS-induced sepsis in C57BL/6 mouse model assessed as reduction in hypothermia administered intraperitoneally daily for 3 days followed by LPS stimulation for 12 hrs and measured every 1 hr by digital thermometer. In kind it is functional, organism-based. The following applies: dose lower […], dose upper 30.0 mg/kg, route ip, time 84.0 hrs, DDE = dose-dependent effect.

Test [14] deals with Mus musculus. Briefly: Protection against LPS-induced sepsis in C57BL/6 mouse model assessed as reduction in white secretion from eyes at 30 mg/kg, ip qd administered for 3 days followed by LPS stimulation. In kind it is functional, organism-based. The following applies: time 3.0 day.
In test [15] the target is Bromodomain-containing protein 4 (Homo sapiens, UniProt O60885). Kind of test: Inhibition of BRD4 BD1 (unknown origin) using FAM-labeled JQ-1 as fluorescent substrate assessed as inhibition constant incubated for 30 mins by competitive fluorescence polarization method.
Test [16] concerns RAW264.7. Kind of test: Antiinflammatory activity in mouse RAW264.7 cells assessed as reduction in LPS-induced TNF-alpha mRNA expression preincubated for 2 hrs followed by LPS stimulation and measured after 22 hrs by RT-qPCR analysis. In kind it is functional, cell-based. The following applies: dose 5-25 µM, time 24.0 hrs, DDE = dose-dependent effect.
The subject of test [17] is Mus musculus. Kind of test: Protection against LPS-induced sepsis in C57BL/6 mouse model assessed as increase in survival rate at 15 mg/kg, ip qd administered for 3 days followed by LPS stimulation and measured every 2 hrs for 120 hrs (reference value: 10%). It is filed as functional.

Regarding `Cc1sc2c(c1C)C(c1ccc(Cl)cc1)=N[C@@H](CC(=O)Nc1ccc(O)cc1)c1nnc(C)n1-2` [BIRABRESIB], the inhibition at 10 µM with RAW264.7 [1] stood at 99.9%. Also, the inhibition at 5 µM in the test with RAW264.7 [2] amounted to 93.4%. For the same compound, in the test with Mus musculus [3], the result was Active.

As for `COc1cc(-c2nc(SCc3ccccc3C)[nH]c(=O)c2C#N)cc(OC)c1OC`, the outcome with Mus musculus [4], in the test with RAW264.7 [5], with Mus musculus [7], with Mus musculus [8], with Mus musculus [11] and in the test with RAW264.7 [12] was Active. Also, in the test on Mus musculus [14], the result was Active. In addition, the Activity result in the test with RAW264.7 [6], in the test on RAW264.7 [10], in the test with Mus musculus [13] and in the test with RAW264.7 [16] was “Dde” each time. In addition, the survival at 30 mg/kg in the test on Mus musculus [9] is 80%. Moreover, the inhibition at 10 µM in the test on RAW264.7 [1] was found to be 99.8%. Also, in the test on RAW264.7 [2], the inhibition at 5 µM turned out to be 74.2%. In test [15], the Ki amounted to 830 nM. Also, the survival at 15 mg/kg in the test on Mus musculus [17] was determined as 50%.
